Legend:
[1] = target: EZH2 enzyme complex (Homo sapiens (Human), UniProt Q15910); test: Test on EZH2 inhibitory activity (TR-FRET); type: biochemical; conditions: EZH2 enzyme complex 25 ng/uL, histone H3 peptide 4 uM, SAM 2 uM, 300 min; read-out: IC50 of EZH2 inhibition
[2] = In vivo pharmacokinetic properties in mice; design: species or system mouse; conditions: male ICR mice; for F: intragastric 250 mg/kg vs intravenous 5 mg/kg; for CL / AUC(0-inf) / Cmax / Tmax / half-life: single intravenous 5 mg/kg and intragastric 250 mg/kg study; for AUC(0-inf) / Cmax / Tmax / half-life: mouse, plasma; for AUC(0-inf) / Cmax / Tmax: oral; for Cmax: read-out: Cmax; for Tmax: read-out: Tmax
Experimental: Male ICR mice were divided into different groups with 3 mice in each group, and single intravenous injection and single intragastric administration were conducted respectively. The compounds were formulated with 10% DMSO/90% (20% Captisol) to reach an appropriate concentration and then administered intravenously at 5 mg/kg. The compounds were formulated with 0.5% CMC-Na/0.1% Tween 80 (pH=3-4) to reach an appropriate concentration and then administered intragastrically at 250 mg/kg. Blood was taken at 5 min, 15 min, 30 min, 1 h, 2 h, 4 h, 6 h, 8 h and 24 h after administration, and then subjected to EDTA-K2 anticoagulation. The concentration of the compound in the plasma was quantitatively detected by an LC-MS/MS method.

EZH2 enzyme complex, sequence (Q15910 whole entry): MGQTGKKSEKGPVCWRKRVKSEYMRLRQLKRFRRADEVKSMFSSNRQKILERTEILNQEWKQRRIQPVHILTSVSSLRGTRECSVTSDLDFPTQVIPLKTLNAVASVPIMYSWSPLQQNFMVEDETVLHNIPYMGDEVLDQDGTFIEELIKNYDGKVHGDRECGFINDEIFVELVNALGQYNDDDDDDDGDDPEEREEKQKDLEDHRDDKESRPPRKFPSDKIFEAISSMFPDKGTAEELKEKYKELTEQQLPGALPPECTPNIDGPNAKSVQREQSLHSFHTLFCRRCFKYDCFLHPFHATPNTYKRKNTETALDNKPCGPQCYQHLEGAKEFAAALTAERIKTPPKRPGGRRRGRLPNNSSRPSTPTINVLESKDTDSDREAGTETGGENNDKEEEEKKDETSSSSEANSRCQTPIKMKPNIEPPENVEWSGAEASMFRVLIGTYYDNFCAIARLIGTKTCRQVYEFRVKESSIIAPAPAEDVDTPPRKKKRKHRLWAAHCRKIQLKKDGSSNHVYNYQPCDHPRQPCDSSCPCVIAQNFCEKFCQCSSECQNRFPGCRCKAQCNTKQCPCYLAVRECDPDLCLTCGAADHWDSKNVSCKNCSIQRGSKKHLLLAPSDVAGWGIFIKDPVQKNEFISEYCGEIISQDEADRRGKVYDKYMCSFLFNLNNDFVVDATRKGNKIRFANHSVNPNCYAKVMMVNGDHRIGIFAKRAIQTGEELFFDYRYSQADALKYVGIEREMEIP
EZH2 enzyme complex, sequence (O75530 whole entry partner): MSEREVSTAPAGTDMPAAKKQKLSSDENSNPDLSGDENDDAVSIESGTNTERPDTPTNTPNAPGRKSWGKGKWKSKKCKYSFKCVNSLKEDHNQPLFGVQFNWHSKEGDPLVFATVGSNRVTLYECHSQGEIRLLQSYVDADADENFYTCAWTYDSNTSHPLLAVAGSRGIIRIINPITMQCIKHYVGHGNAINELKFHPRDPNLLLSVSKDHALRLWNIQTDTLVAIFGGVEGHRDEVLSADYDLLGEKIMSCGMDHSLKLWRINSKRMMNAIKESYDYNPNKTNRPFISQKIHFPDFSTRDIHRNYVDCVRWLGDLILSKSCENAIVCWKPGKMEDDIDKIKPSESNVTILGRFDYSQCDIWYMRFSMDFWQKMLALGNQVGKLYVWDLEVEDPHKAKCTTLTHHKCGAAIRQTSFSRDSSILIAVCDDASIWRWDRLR
EZH2 enzyme complex, sequence (Q15022 whole entry partner): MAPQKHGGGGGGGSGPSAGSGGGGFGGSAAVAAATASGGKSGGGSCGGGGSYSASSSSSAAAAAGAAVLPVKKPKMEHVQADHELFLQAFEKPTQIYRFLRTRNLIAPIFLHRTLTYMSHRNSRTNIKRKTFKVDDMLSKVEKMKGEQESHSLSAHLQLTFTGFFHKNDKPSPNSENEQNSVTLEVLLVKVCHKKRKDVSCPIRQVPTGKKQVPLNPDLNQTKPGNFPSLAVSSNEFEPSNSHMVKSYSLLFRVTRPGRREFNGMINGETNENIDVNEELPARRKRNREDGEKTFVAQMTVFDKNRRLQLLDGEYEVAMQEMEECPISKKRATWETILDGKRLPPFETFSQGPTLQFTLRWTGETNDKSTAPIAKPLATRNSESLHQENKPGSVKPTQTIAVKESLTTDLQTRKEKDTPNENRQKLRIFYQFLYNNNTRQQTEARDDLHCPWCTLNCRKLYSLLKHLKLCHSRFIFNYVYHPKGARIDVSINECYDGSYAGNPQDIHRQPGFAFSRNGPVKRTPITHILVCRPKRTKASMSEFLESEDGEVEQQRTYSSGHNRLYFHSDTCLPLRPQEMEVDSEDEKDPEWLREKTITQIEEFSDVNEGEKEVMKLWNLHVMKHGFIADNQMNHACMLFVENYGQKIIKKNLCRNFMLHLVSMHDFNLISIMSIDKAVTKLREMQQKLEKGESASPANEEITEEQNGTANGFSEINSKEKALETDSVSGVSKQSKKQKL

SMILES	IC50 [1] [nM]	also measured
Cc1cc(C)c(CNC(=O)c2cc(OC3CCC3)cc(OC3CCOCC3)c2C)c(=O)[nH]1 [Example 5, 5-cyclobutoxy-N-((4,6-dimethyl-2-oxo-1,2-dihydropyridin-3-yl)methyl)-2-methyl-3-((tetrahydro-2H-pyran-4-yl)oxy)benzamide]	100 to 1000	
CCN(c1cc(O[C@H]2C[C@H](CN3CCOCC3)C2)cc(C(=O)NCc2c(C)cc(C)[nH]c2=O)c1C)[C@H]1CC[C@H](N(C)CCOC)CC1 [Example 32, N-((4,6-dimethyl-2-oxo-1,2-dihydropyridin-3-yl)methyl)-3-(ethyl(trans-4-((2-methoxyethyl)(methyl)amino)cyclohexyl)amino)-2-methyl-5-(trans-3-(morpholinylmethyl)cyclobutoxy)benzamide]	10 to 100	
CCN(c1cc(O[C@H]2C[C@@H](N3CCOCC3)C2)cc(C(=O)NCc2c(C)cc(C)[nH]c2=O)c1Cl)C1CCOCC1 [Example 40, 2-chloro-N-((4,6-dimethyl-2-oxo-1,2-dihydropyridin-3-yl)methyl)-3-(ethyl(tetrahydro-2H-pyran-4-yl)amino)-5-(cis-3-morpholinylcyclobutoxy)benzamide]	10 to 100	
CCN(c1cc(O[C@H]2C[C@H](N3CCOCC3)C2)cc(C(=O)NCc2c(C)cc(C)[nH]c2=O)c1Cl)C1CCOCC1 [Example 41, 2-chloro-N-((4,6-dimethyl-2-oxo-1,2-dihydropyridin-3-yl)methyl)-3-(ethyl(tetrahydro-2H-pyran-4-yl)amino)-5-(trans-3-morpholinylcyclobutoxy)benzamide]	10 to 100	
CCN(c1cc(O[C@H]2C[C@@H](N3CCNCC3)C2)cc(C(=O)NCc2c(C)cc(C)[nH]c2=O)c1Cl)C1CCOCC1 [Example 42, 2-chloro-N-((4,6-dimethyl-2-oxo-1,2-dihydropyridin-3-yl)methyl)-3-(ethyl(tetrahydro-2H-pyran-4-yl)amino)-5-(cis-3-(piperazin-1-yl)cyclobutoxy)benzamide]	10 to 100	
CCN(c1cc(O[C@H]2C[C@H](N3CCNCC3)C2)cc(C(=O)NCc2c(C)cc(C)[nH]c2=O)c1Cl)C1CCOCC1 [Example 43, 2-chloro-N-((4,6-dimethyl-2-oxo-1,2-dihydropyridin-3-yl)methyl)-3-(ethyl(tetrahydro-2H-pyran-4-yl)amino)-5-(trans-3-(piperazin-1-yl)cyclobutoxy)benzamide]	10 to 100	
CCN(c1cc(O[C@H]2C[C@H](N3C[C@@H](C)O[C@@H](C)C3)C2)cc(C(=O)NCc2c(C)cc(C)[nH]c2=O)c1C)C1CCOCC1 [Example 44, N-((4,6-dimethyl-2-oxo-1,2-dihydropyridin-3-yl)methyl)-5-(trans-3-(cis-2,6-dimethylmorpholinyl)cyclobutoxy)-3-(ethyl(tetrahydro-2H-pyran-4-yl)amino)-2-methylbenzamide]	10 to 100	
CCN(c1cc(O[C@H]2C[C@H](N3C[C@@H](C)O[C@@H](C)C3)C2)cc(C(=O)NCc2c(C)cc(C)[nH]c2=O)c1C)C1CCN(CC(F)(F)F)CC1 [Example 50, N-((4,6-dimethyl-2-oxo-1,2-dihydropyridin-3-yl)methyl)-5-(trans-3-(cis-2,6-dimethylmorpholinyl)cyclobutoxy)-3-(ethyl (1-(2,2,2-trifluoroethyl)piperidin-4-yl)amino)-2-methylbenzamide]	10 to 100	
CCN(c1cc(O[C@H]2C[C@H](N3CC4CC(C3)O4)C2)cc(C(=O)NCc2c(C)cc(C)[nH]c2=O)c1C)C1CCOCC1 [Example 54, 5-(trans-3-(6-oxa-3-azabicyclo[3.1.1]heptan-3-yl)cyclobutoxy)-N-((4,6-dimethyl-2-oxo-1,2-dihydropyridin-3-yl)methyl)-3-(ethyl(tetrahydro-2H-pyran-4-yl)amino)-2-methylbenzamide]	10 to 100	
CCN(c1cc(O[C@H]2C[C@H](CN3CCOCC3)C2)cc(C(=O)NCc2c(C)cc(C)[nH]c2=O)c1F)C1CCOCC1 [Example 61, N-((4,6-dimethyl-2-oxo-1,2-dihydropyridin-3-yl)methyl)-3-(ethyl(tetrahydro-2H-pyran-4-yl)amino)-2-fluoro-5-(trans-3-(morpholinomethyl)cyclobutoxy)benzamide]	> 1000	
CCN(c1cc(O[C@H]2C[C@H](N3CCOCC3)C2)cc(C(=O)NCc2c(C)cc(C)[nH]c2=O)c1C)C1CCOC1 (stereo partly drawn) [Example 64, N-((4,6-dimethyl-2-oxo-1,2-dihydropyridin-3-yl)methyl)-3-(ethyl(tetrahydrofuran-3-yl)amino)-2-methyl-5-(trans-3-morpholin-4-ylcyclobutoxy)benzamide]	10 to 100	
CCN(c1cc(O[C@H]2C[C@H](N3CCCCC3)C2)cc(C(=O)NCc2c(C)cc(C)[nH]c2=O)c1Cl)C1CCOCC1 [Example 66, 2-chloro-N-((4,6-dimethyl-2-oxo-1,2-dihydropyridin-3-yl)methyl)-3-(ethyl(tetrahydro-2H-pyran-4-yl)amino)-5-(trans-3-(piperidin-1-yl)cyclobutoxy)benzamide]		F [2]: 38.3%; CL [2]: 53.5 ± 13.44 mL/min/lg; AUC(0-inf) [2]: 31200 ng·h/mL; Cmax [2]: 16700 ± 4970 ng/mL; Tmax [2]: 0.42 ± 0.14 h; half-life [2]: 5.05 ± 0.75 h
CCN(c1cc(C2CC2CN2CCN(C)CC2)cc(C(=O)NCc2c(C)cc(C)[nH]c2=O)c1C)[C@H]1CC[C@H](N(C)CCOC)CC1 (stereo partly drawn) [Example 81, N-((4,6-dimethyl-2-oxo-1,2-dihydropyridin-3-yl)methyl)-3-(ethyl(trans-4-((2-methoxyethyl)(methyl)amino)cyclohexyl)amino)-2-methyl-5-(2-((4-methylpiperazin-1-yl)methyl)cyclopropyl)benzamide]	10 to 100	
CCN(c1cc(C2CC2CN2CCOCC2)cc(C(=O)NCc2c(C)cc(C)[nH]c2=O)c1Cl)C1CCOCC1 (stereo not drawn) [Example 84, 2-chloro-N-((4,6-dimethyl-2-oxo-1,2-dihydropyridin-3-yl)methyl)-3-(ethyl(tetrahydro-2H-pyran-4-yl)amino)-5-(2-(morpholinylmethyl)cyclopropyl)benzamide]	100 to 1000	
CCN(c1cc(O[C@H]2C[C@H](N3CCOCC3)C2)cc(C(=O)NCc2c(C)cc(C)[nH]c2=O)c1C)C1CC2CCC(C1)O2 (stereo partly drawn) [Example 86]		F [2]: 29.5%; CL [2]: 65.5 ± 1.60 mL/min/lg; AUC(0-inf) [2]: 18800 ± 4560 ng·h/mL; Cmax [2]: 21000 ± 8040 ng/mL; Tmax [2]: 0.25 h; half-life [2]: 4.19 ± 3.07 h
CCN(c1cc(O[C@H]2C[C@H](N3CCC(C)CC3)C2)cc(C(=O)NCc2c(OC)cc(C)[nH]c2=O)c1Cl)C1CCOCC1 [Example 89]	10 to 100	
CCN(c1cc(O[C@H]2C[C@H](N3CCC(C)CC3)C2)cc(C(=O)NCc2c(C)cc(C(F)(F)F)[nH]c2=O)c1Cl)C1CCOCC1 [Example 90]	> 1000	

— US12390472B2 (SUZHOU SINOVENT PHARMACEUTICALS CO., LTD., priority 2018, dated 2025)
